Experimental data: patent US20090238852A1, “METHODS FOR CONTROLLING INTRACELLULAR CALCIUM LEVELS ASSOCIATED WITH AN ISCHEMIC EVENT” (University of Utah Research Foundation, priority 2008, published 2009)

How the values were obtained:
[1] = system: rabbit ventricular myocytes; test: [Ca^++]i during paced aerobic metabolism (PH) with the Na^+ channel opener ATX; type: cell-based; details: n = 7
Procedure: In these studies, intracellular calcium concentration [Ca^++]i was measured by flow cytometry. Measurement of isolated mouse and rabbit ventricular myocyte [Ca^2+]i and [Na^+]i by flow cytometry has been described (Zhang et al., J. Cardiovasc. Pharmacol. 51: 443-449 (2008); Li et al., J. Mol. Cell. Cardiol. 33: 2145-2155 (2001)). [Ca^++]i was measured with the Ca^++ sensitive fluorescent probe, Fluo 3-AM (Molecular Probes, Eugene, Oreg.), using a FACScan (Becton-Dickinson, MA). The cells were exposed to 4 μmol/L Fluo-3 AM for 30 min at 37° C. The cells were then separated into aliquots. After 40 min of wash, the cells were exposed to paced metabolic ischemia (MI) for 45 min at 37° C. Metabolic ischemia was accomplished by incubating cells in a glucose-free MKRBB solution (pH 7.40) containing 2 mmol/L sodium cyanide (NaCN) to impair mitochondrial and glycolytic generation of ATP. To reproduce the situation in the beating ischemic heart, during the period of metabolic ischemia, myocytes were placed in a 5-well chamber with equal volumes of myocyte suspensions from the same heart dissociation placed in each well. The chamber was water bathed to maintain temperature at 37° C. and bubbled with 5% CO2 in air to keep myocytes in suspension. […] Approximately 2×10^3 myocytes were analyzed to calculate average emission fluorescence intensity in each sample. […] Only those cells with low fluorescence intensity at 670 nm (PI-negative cells or viable cells) were included in the comparative analysis of [Ca^++]i. The sample [Ca^2+]i values were calculated by Mn^2+ quenching (Sugishita et al, 2001) and [Na^+]i values by comparison with a standard curve of varied [Na^+]i versus Na Green fluorescence. […] Results were expressed as means±SEM. […]
To further examine the role of ODSH as a Na^+ inhibitor, additional experiments were performed in which the Na^+ channel opener amenone toxin II (ATX) was added to medium in a final concentration of 20 nmol/L to open the cardiac myocyte membrane Na^+ channel. […] Intracellular calcium concentration [Ca^++]i was monitored as earlier. […]

[2] = system: myeloperoxidase (MPO) activity; test: Porcine ischemia/reperfusion model: myeloperoxidase activity in myocardium; type: in vivo, pig; details: ODSH 45 mg/kg; FIG. 11
Description: Arterial access was achieved via bilateral femoral artery cut-downs for the insertion of 8F sheaths. Central venous and carotid access was achieved via a neck incision to expose the external jugular vein and common carotid artery. Animals were then anticoagulated with 50 U/kg of unfractionated heparin to maintain an activated clotting time (ACT) between 250-350 seconds, prior to ischemia. A 7-8 Fr pigtail catheter was placed in the left ventricular cavity to measure pressure and for injection of 15 μneutron-activated microspheres. […] Baseline cardiodynamic and hemodynamic data were measured using a solid state transducer-tipped catheter in the left ventricle (Millar Instruments, Houston, Tex.) to measure left ventricular pressure, and a fluid-filled transducer connected to the side port of the femoral artery sheath to measure peripheral arterial pressure. Approximately 3-4 million neutron-activated microspheres (BioPhysics Assay Laboratory, Inc, Worcester, Ma) (15 μm) were delivered through a pig-tail catheter into the left ventricle over a 30 second period, to quantify regional myocardial blood flow (RMBF). […] Balloon occlusion time was 75 minutes with coronary occlusion confirmed by contrast angiography, ST segment changes on electrocardiography, and quantitatively confirmed by microspheres delivered at the end of ischemia, as described above. […]

Substance: 2-O, 3-O desulfated heparin [ODSH]
- [Ca^++]i ([1]; PH + ODSH 100 μg/mL + ATX 20 nmol/L, PH + ATX 529.1 ± 29.3): 412.9 ± 26.7^+ nM
- [Ca^++]i ([1]; PH + ODSH 100 μg/mL, no ATX, PH alone 406.8 ± 15.9): 366.4 ± 21.1 nM
- MPO activity in ischemic-reperfused myocardium [2]: significantly reduced
